Test results published in US10562891B2, “Quinazolinones as PARP14 inhibitors” (Ribon Therapeutics Inc., priority 2017, dated 2020).
Structures can show the parent of a compound that is named as a salt.

Target: catalytic domain of human PARP14 (Homo sapiens (Human), UniProt Q460N5)
Test: Enzymatic assay for inhibition of PARP14 (DELFIA, auto-modification with biotin-NAD)
Type: biochemical
Conditions: auto-modification of PARP14 by biotin-NAD, 50 nM PARP14, 3 μM biotin-NAD
Summary of the method: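 His-TEV-tagged PARP14 catalytic domain (50 nM) preincubated with compound 30 min at 25 °C, then auto-modified with 3 μM biotin-NAD for 3 h at 25 °C in HEPES pH 8 buffer with DTT. IC50 from 4-parameter fit, rucaparib and DMSO as controls.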

catalytic domain of human PARP14, sequence (Q460N5 1611-1801): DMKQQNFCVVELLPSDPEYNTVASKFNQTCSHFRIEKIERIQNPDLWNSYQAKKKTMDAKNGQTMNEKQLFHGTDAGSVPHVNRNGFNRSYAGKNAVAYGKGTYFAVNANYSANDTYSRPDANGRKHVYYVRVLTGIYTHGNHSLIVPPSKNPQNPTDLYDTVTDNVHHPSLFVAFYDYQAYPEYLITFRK

| SMILES | IC50 |
| --- | --- |
| CO[C@H]1CC[C@@H](SCc2nc3c(C)cccc3c(=O)[nH]2)CC1 [Example 27, 2-((((cis)-4-Methoxycyclohexyl)thio)methyl)-8-methylquinazolin-4(3H)-one] | 1 to 10 µM |
| Cc1cccc2c(=O)[nH]c(CS[C@@H]3CCC[C@H](CN(C)C)C3)nc12 (relative stereo) [Example 72, 2-((((cis)-3-((Dimethylamino)methyl)cyclohexyl)thio)methyl)-8-methyl quinazolin-4(3H)-one Trifluoroacetate] | > 10 µM |
| O=c1[nH]c(CSC2CCOCC2)nc2cc(N[C@H]3CC[C@H](N4CCOCC4)CC3)cc(F)c12 [Example 233, 5-Fluoro-7-((trans-4-morpholinocyclohexyl)amino)-2-(((tetrahydro-2H-pyran-4-yl)thio)methyl)quinazolin-4(3H)-one Trifluoroacetate] | < 1 µM |
| O=c1[nH]c(CS[C@H]2CC[C@H](O)CC2)nc2cc(NC3CCCC3)cc(F)c12 [Example 185, 7-(cyclopentylamino)-5-fluoro-2-((((1R,4R)-4-hydroxycyclohexyl)thio)methyl)quinazolin-4(3H)-one] | < 1 µM |
| COc1ccc2c(=O)[nH]c(CSC3CCOCC3)nc2c1 [Example 31, 7-Methoxy-2-(((tetrahydro-2H-pyran-4-yl)thio)methyl)quinazolin-4(3H)-one] | 1 to 10 µM |
| Cc1cccc2c(=O)[nH]c(CSC3CCN(Cc4ccc5c(c4)NC(=O)C5)CC3)nc12 [Example 156, 8-Methyl-2-(((1-((2-oxoindolin-6-yl)methyl)piperidin-4-yl)thio)methyl)quinazolin-4(3H)-one trifluoroacetate] | 1 to 10 µM |
| O=c1[nH]c(CS[C@H]2CC[C@H](CO)CC2)nc2cc(Nc3cccnc3)ccc12 [Example 107, 2-(((trans-4-(Hydroxymethyl)cyclohexyl)thio)methyl)-7-(pyridin-3-ylamino) quinazolin-4(3H)-one] | < 1 µM |
| Cc1cccc2c(=O)[nH]c(CS[C@H]3CC[C@H](O)CC3)nc12 [Example 23, 2-((((trans)-4-Hydroxycyclohexyl)thio)methyl)-8-methylquinazolin-4(3H)-one] | < 1 µM |
| Cc1cccc2c(=O)[nH]c(CSC3CCN(C[C@@H](O)CO)CC3)nc12 [Example 160, (R)-2-(((1-(2,3-Dihydroxypropyl)piperidin-4-yl)thio)methyl)-8-methyl quinazolin-4(3H)-one Trifluoroacetate] | 1 to 10 µM |
| N#Cc1ccc2c(=O)[nH]c(CSC3CCOCC3)nc2c1 [Example 1, 4-Oxo-2-(((tetrahydro-2H-pyran-4-yl)thio)methyl)-3,4-dihydroquinazoline-7-carbonitrile] | > 10 µM |
| O=c1[nH]c(CSC2CCNCC2)nc2cc(NC3CCCC3)ccc12 [Example 179, 7-(cyclopentylamino)-2-((piperidin-4-ylthio)methyl)quinazolin-4(3H)-one] | < 1 µM |
| Cc1cccc2c(=O)[nH]c(CSC3CCN(C(=O)[C@H](N)CCCCN)CC3)nc12 [Example 172, 2-(((1-(D-Lysyl)piperidin-4-yl)thio)methyl)-8-methylquinazolin-4(3H)-one Dihydrochloride] | < 1 µM |
| Cc1cccc2c(=O)[nH]c(CSC3CCNCC3)nc12 [Example 13, 8-Methyl-2-((piperidin-4-ylthio)methyl)quinazolin-4(3H)-one Trifluoroacetate] | < 1 µM |
| O=c1[nH]c(CSC2CCOCC2)nc2cc(Cc3ccccc3)ccc12 [Example 11] | > 10 µM |
| O=c1[nH]c(CSC2CCOCC2)nc2cc(N[C@H]3CCCOC3)ccc12 [Example 187, (S)-7-((tetrahydro-2H-pyran-3-yl)amino)-2-(((tetrahydro-2H-pyran-4-yl)thio)methyl)quinazolin-4(3H)-one] | < 1 µM |
| Cc1cccc2c(=O)[nH]c(CS[C@H]3CC[C@H](CO)CC3)nc12 [Example 62, 2-(((trans-4-(Hydroxymethyl)cyclohexyl)thio)methyl)-8-methylquinazolin-4(3H)-one] | < 1 µM |
| O=c1[nH]c(CSC2CCOCC2)nc2cc(NC3CC3)ccc12 [Example 124, 7-(Cyclopropylamino)-2-(((tetrahydro-2H-pyran-4-yl)thio)methyl)quinazolin-4(3H)-one] | < 1 µM |

Continued, values first:

| IC50 | SMILES |
| --- | --- |
| < 1 µM | O=c1[nH]c(CSC2CCS(=O)(=O)CC2)nc2cc(NC3CCCC3)c(F)c(F)c12 [Example 316, 7-(Cyclopentylamino)-2-(((1,1-dioxidotetrahydro-2H-thiopyran-4-yl)thio)methyl)-5,6-difluoroquinazolin-4(3H)-one] |
| < 1 µM | CC(=O)N1CCC(COc2cc(F)c3c(=O)[nH]c(CS[C@H]4CC[C@@H](O)CC4)nc3c2)CC1 [Example 422] |
| < 1 µM | O=c1[nH]c(CSC2CCOCC2)nc2cc(NC[C@@H]3CCOC3)c(F)c(F)c12 [Example 323a, (S)-5,6-Difluoro-2-(((tetrahydro-2H-pyran-4-yl)thio)methyl)-7-(((tetrahydrofuran-3-yl)methyl)amino)quinazolin-4(3H)-one] |
| < 1 µM | CN1CCN([C@H]2CC[C@H](Nc3cc4nc(CSC5CCOCC5)[nH]c(=O)c4c(F)c3F)CC2)CC1 [Example 346] |
| < 1 µM | O=c1[nH]c(CSC2CCOCC2)nc2cc(OCC3CCOCC3)cc(F)c12 [Example 236, 5-Fluoro-7-((tetrahydro-2H-pyran-4-yl)methoxy)-2-(((tetrahydro-2H-pyran-4-yl)thio)methyl)quinazolin-4(3H)-one] |
| 1 to 10 µM | Cc1cccc2c(=O)[nH]c(CS[C@H]3CC[C@@H](C(N)=O)CC3)nc12 [Example 204, cis-4-(((8-Methyl-4-oxo-3,4-dihydroquinazolin-2-yl)methyl)thio)cyclohexane-1-carboxamide] |
| < 1 µM | O=c1[nH]c(CSC2CCOCC2)nc2cc(OCC3CCOCC3)cc(Cl)c12 [Example 353] |
| < 1 µM | O=c1[nH]c(CSC2CCOCC2)nc2cc(OCC3CC(F)(F)C3)cc(F)c12 [Example 317, 7-((3,3-Difluorocyclobutyl)methoxy)-5-fluoro-2-(((tetrahydro-2H-pyran-4-yl)thio)methyl)quinazolin-4(3H)-one] |
| < 1 µM | CN1CC[C@H](COc2cc(F)c3c(=O)[nH]c(CS[C@H]4CC[C@H](O)CC4)nc3c2)[C@@H](F)C1 (relative stereo) [Example 334, 5-Fluoro-7-(((trans)-3-fluoro-1-methylpiperidin-4-yl)methoxy)-2-((((trans)-4-hydroxycyclohexyl)thio)methyl)quinazolin-4(3H)-one trifluoroacetic acid] |
| 1 to 10 µM | Cc1cccc2c(=O)[nH]c(CSC3CCCOCC3)nc12 (stereo not drawn) [Example 198, 8-methyl-2-((oxepan-4-ylthio)methyl)quinazolin-4(3H)-one] |
| < 1 µM | O=c1[nH]c(CSC2CCS(=O)(=O)CC2)nc2cc(NCC3CCC3)c(F)cc12 [Example 296, 7-((Cyclobutylmethyl)amino)-2-(((1,1-dioxidotetrahydro-2H-thiopyran-4-yl)thio)methyl)-6-fluoroquinazolin-4(3H)-one] |
| < 1 µM | CC(=O)N1CCC(COc2cc(F)c3c(=O)[nH]c(CS[C@H]4CC[C@](C)(O)CC4)nc3c2)CC1 [Example 409] |
| < 1 µM | Cc1cc(NC2CCCC2)cc2nc(CSC3CCOCC3)[nH]c(=O)c12 [Example 203, 7-(Cyclopentylamino)-5-methyl-2-(((tetrahydro-2H-pyran-4-yl)thio)methyl) quinazolin-4(3H)-one] |
| < 1 µM | O=C(C1CC1)N1CCC(COc2cc(F)c3c(=O)[nH]c(CSC4CCOCC4)nc3c2)CC1 [Example 390] |
| < 1 µM | O=c1[nH]c(CSC2CCOCC2)nc2cc(OC3CCCC3)ccc12 [Example 197, 7-(cyclopentyloxy)-2-(((tetrahydro-2H-pyran-4-yl)thio)methyl)quinazolin-4(3H)-one] |
| < 1 µM | CN(C)C(=O)N1CCC(SCc2nc3cc(NC4CCCC4)cc(F)c3c(=O)[nH]2)CC1 [Example 220, 4-(((7-(Cyclopentylamino)-5-fluoro-4-oxo-3,4-dihydroquinazolin-2-yl)methyl)thio)-N,N-dimethylpiperidine-1-carboxamide] |
| < 1 µM | CS(=O)(=O)N1CCC[C@@H](Nc2ccc3c(=O)[nH]c(CSC4CCNCC4)nc3c2)C1 [Example 196, (R)-7-((1-(methylsulfonyl)piperidin-3-yl)amino)-2-((piperidin-4-ylthio)methyl)quinazolin-4(3H)-one] |
| < 1 µM | CO[C@H]1CC[C@H](SCc2nc3cc(OCC4CCOCC4)cc(F)c3c(=O)[nH]2)CC1 [Example 356] |
| 1 to 10 µM | O=c1[nH]c(CSC2CCNCC2)nc2cc(NCC3CCOCC3)cc(F)c12 [Example 272, 5-Fluoro-2-((piperidin-4-ylthio)methyl)-7-(((tetrahydro-2H-pyran-4-yl)methyl)amino)quinazolin-4(3H)-one] |
| < 1 µM | O=c1[nH]c(CSC2CCOCC2)nc2cc(OC[C@@H]3CCOC3)cc(F)c12 [Example 239a, (R)-5-fluoro-2-(((tetrahydro-2H-pyran-4-yl)thio)methyl)-7-((tetrahydrofuran-3-yl)methoxy)quinazolin-4(3H)-one] |
| < 1 µM | CO[C@H]1C[C@@H](Nc2cc3nc(CSC4CCOCC4)[nH]c(=O)c3c(F)c2F)C1 [Example 328, 5,6-Difluoro-7-(((cis)-3-methoxycyclobutyl)amino)-2-(((tetrahydro-2H-pyran-4-yl)thio)methyl)quinazolin-4(3H)-one] |
| < 1 µM | C[C@]1(O)CC[C@H](SCc2nc3cc(OCC4CCOC4)cc(F)c3c(=O)[nH]2)CC1 (stereo partly drawn) [Example 373] |
| < 1 µM | O=c1[nH]c(CSC2CCOCC2)nc2cc(N[C@H]3C[C@@H](OC(F)(F)F)C3)c(F)c(F)c12 [Example 402] |
| < 1 µM | CO[C@H]1C[C@H](Nc2cc3nc(CSC4CCOCC4)[nH]c(=O)c3c(F)c2F)C1 [Example 362] |
| < 1 µM | O=c1[nH]c(CSC2CCN(CCC(F)(F)F)CC2)nc2cc(NC3CCCC3)ccc12 [Example 259, 7-(Cyclopentylamino)-2-(((1-(3,3,3-trifluoropropyl)piperidin-4-yl)thio)methyl)quinazolin-4(3H)-one] |
